# Patent publication US20220117957A1, “TREATMENT METHOD FOR CORONAVIRUS INFECTION” (priority 2020, published 2022)
# Assays:
# SARS-CoV-2 = assay type: in vivo; conditions: individuals infected with SARS-CoV-2 treated with Rifampin
# [1] = organic solvents; water at acidic pH; cited from earlier work
smiles,measurement,setting,value
CO[C@H]1/C=C/O[C@@]2(C)Oc3c(C)c(O)c4c(O)c(c(/C=N/N5CCN(C)CC5)c(O)c4c3C2=O)NC(=O)/C(C)=C\C=C\[C@H](C)[C@H](O)[C@@H](C)[C@@H](O)[C@@H](C)[C@H](OC(C)=O)[C@@H]1C [Rifampin],recovery times,SARS-CoV-2,much faster recovery times
same,severity of symptoms,SARS-CoV-2,less severe symptoms
same,solubility,[1],soluble in organic solvents and in water at acidic pH
